# Azo = N-terminal azobenzene
# How the values were obtained:
# Format in all cases: physicochemical
# [1] = Hydrogelation conditions: lowest concentration to gel water at specific pH; design: key to pH (hydrogelation condition): —: unable to form hydrogel under tested conditions; conditions: for pH (to form a hydrogel): azobenzene substituted bio-active short peptides
# Experimental: Preparation of Hydrogels. A homogeneous solution of azobenzene-substituted short peptides was prepared in a glass vial via pH adjustment and heating. Upon cooling to room temperature, a hydrogel formed for Azo-Gln-Phe-Ala; Azo-Lys-Phe-Ala; Azo-Leu- Phe-Ala; Azo-D-Lys-D-Phe-D-Ala; and Azo-Arg-Phe-Ala. However, Azo-Lys-D-Phe-D-Ala and Azo-D-Lys-Phe-Ala, sonification was necessary to facilitate the hydrogelation. Hydrogels of Azo-Ser-Phe-Ala; Azo-Gln-Tyr-Ala; Azo-Glu-Tyr-Ala; and Azo-Glu-Phe-Ala were prepared by acidifying the basic solution to the pH shown in Table 1.
# Test on pH and salt effects on gelation properties. pH effect: Azo-dipeptides were mixed with a small quality of water and the mixture were adjusted to the desired pH with 1M HCl or NaOH, then heated to about 80-90° C. to obtain a clear solution. A yellow hydrogel formed upon cooling to room temperature. The lowest concentration for hydrogelation at a specific pH was obtained by successive dilution of the hydrogel using water, at the same pH that of the hydrogelation, to the point when hydrogel could not form.
# [2] = Salt effect on gelation properties; conditions: buffer of higher concentration of Na2HPO4/NaH2PO4; FIG. 1B
# Experimental: Salt effect: Buffers at different pHs (5 and 6) and different concentrations (0.05M, 0.1M, 0.2M and 0.5M) were prepared by mixing Na2HPO4 and NaH2PO4 with different concentration. The azo-dipeptides were mixed with a small quality of buffer and heated to about 80-90° C. to obtain a clear solution. Yellow hydrogels formed upon cooling to room temperature. The lowest concentration for hydrogelation at specific pH was obtained by successive dilution of the hydrogel by the buffer with the same concentration of salt to the point when the hydrogel no longer formed.
# [3] = Photo-response tests on the hydrogels (UV irradiation); design: key to tinit(min): time needed for initial collapse of the gel upon UV irradiation: —: no obvious change upon UV irradiation; conditions: for tinit(min): time needed for initial collapse of the gel upon UV irradiation: high pressure mercury lamp (500 w); for total irradiation time needed for the gel to begin to collapse (tinit): UV irradiation (365 nm), Azo-Lys-Phe-Ala: partial phase transition; for photo-response of the gel upon UV irradiation (in words): Azo-Glu-Phe-Ala: even after 5 hours of UV-irradiation
# Experimental: (§1) Photo-response tests on the hydrogels. The light source for the UV irradiation was a high pressure mercury lamp (500 w) with a filter to cut off visible light. A control experiment was performed in parallel using the same hydrogel in a tin foil covered glass vial to exclude the possibility of response induced by any external stimulus other than light irradiation. The photo-response of the hydrogels was confirmed by observation of the gel to solution phase change of the sample under irradiation, but not on the sample of negative control. In one example, ^1H NMR of Azo-Lys-D-Ala-D-Ala in d-MeOH was used to confirm that after UV irradiation for 2 minutes 11% of the compound was in the cis-configuration, and after 10 minutes, 51% was in the cis-configuration.
# [4] = Temperature for gel to solution phase transition; conditions: for T (° C.): temperature for gel to solution phase transition: azobenzene substituted tripeptide hydrogels
# [5] = 1H NMR determination of cis-configuration after UV irradiation; conditions: 1H NMR in d-MeOH
# Experimental: as §1
# [6] = Rheology test on the hydrogel before and after UV irradiation
# Experimental: Rheology test on the hydrogel before and after UV irradiation. All rheological measurements were performed using an ARES-G2 Rheometer with a cone and a plate (25 mm diameter plate and 0.0999 rad cone angle), and a gap opening between the cone and the plate of 0.0282 mm. The dynamic strain sweep test was carried out at 6.282 rad/s, and then dynamic frequency sweep test was investigated at critical strain, which was determined from storage-strain profile.
# [7] = azobenzene substituted dipeptides
# [8] = azobenzene substituted tripeptides, pH at which the lowest gelling concentration applies
substance,measurement,setting,value
Azo-Ala-Phe,pH (hydrogelation condition),[1]; [7],9.5
Azo-Ala-Tyr,salt effect on concentration required for hydrogelation,[2],decreased the concentration required for hydrogelation
same,pH (hydrogelation condition),[1]; [7],5.1
Azo-Arg-Ala,pH (hydrogelation condition),[1]; [7],—
Azo-Arg-Gln,pH (hydrogelation condition),[1]; [7],—
Azo-Arg-Lys,pH (hydrogelation condition),[1]; [7],—
Azo-Arg-Phe,pH (hydrogelation condition),[1]; [7],—
Azo-Arg-Phe-Ala,tinit(min): time needed for initial collapse of the gel upon UV irradiation,[3],8 min
same,T (° C.): temperature for gel to solution phase transition,[4],47 °C
same,pH (hydrogelation condition),[1]; [8],1.6
Azo-D-Lys-D-Phe-D-Ala,tinit(min): time needed for initial collapse of the gel upon UV irradiation,[3],15 min
same,T (° C.): temperature for gel to solution phase transition,[4],60 °C
same,pH (hydrogelation condition),[1]; [8],1.6
Azo-D-Lys-Phe-Ala,tinit(min): time needed for initial collapse of the gel upon UV irradiation,[3],4 min
same,T (° C.): temperature for gel to solution phase transition,[4],39 °C
same,pH (hydrogelation condition),[1]; [8],1.4
Azo-GAGAS,pH (to form a hydrogel),[1],3.9
Azo-Gln-Ala,pH (hydrogelation condition),[1]; [7],2.5
Azo-Gln-Gln,pH (hydrogelation condition),[1]; [7],—^b
Azo-Gln-Phe-Ala,total irradiation time needed for the gel to begin to collapse (tinit),[3],≤ 3 min
same,tinit(min): time needed for initial collapse of the gel upon UV irradiation,[3],3 min
same,time to complete conversion of the hydrogel into a homogeneous non-viscous solution,"[3]; UV light (365 nm), without external heating",under 20 minutes
same,T (° C.): temperature for gel to solution phase transition,[4],65 °C
same,pH (hydrogelation condition),[1]; [8],7.8
Azo-Gln-Tyr,pH (hydrogelation condition),[1]; [7],4.8
Azo-Gln-Tyr-Ala,tinit(min): time needed for initial collapse of the gel upon UV irradiation,[3],—
same,T (° C.): temperature for gel to solution phase transition,[4],81 °C
same,pH (hydrogelation condition),[1]; [8],3.1
Azo-Glu-Ala,pH (hydrogelation condition),[1]; [7],2.4
Azo-Glu-Lys,pH (hydrogelation condition),[1]; [7],—
Azo-Glu-Phe,pH (hydrogelation condition),[1]; [7],2.5
Azo-Glu-Phe-Ala,photo-response of the gel upon UV irradiation (in words),[3],No photo-response was observed
same,tinit(min): time needed for initial collapse of the gel upon UV irradiation,[3],—^d
same,T (° C.): temperature for gel to solution phase transition,[4],85 °C
same,pH (hydrogelation condition),[1]; [8],4.7
Azo-Glu-Tyr,salt effect on concentration required for hydrogelation,[2],almost negligible
same,pH (hydrogelation condition),[1]; [7],4.8
Azo-Glu-Tyr-Ala,tinit(min): time needed for initial collapse of the gel upon UV irradiation,[3],—
same,T (° C.): temperature for gel to solution phase transition,[4],69 °C
same,pH (hydrogelation condition),[1]; [8],3.0
Azo-Gly-Phe-Ala,photo-response of the gel upon UV irradiation (in words),[3],fast responses
same,total irradiation time needed for the gel to begin to collapse (tinit),[3],5 min
same,tinit(min): time needed for initial collapse of the gel upon UV irradiation,[3],5 min
same,T (° C.): temperature for gel to solution phase transition,[4],48 °C
same,pH (hydrogelation condition),[1]; [8],7.5
Azo-IKVAV,pH (to form a hydrogel),[1],4.5
Azo-LGAGGAG (Azo-LGAGGAG-OH),pH (to form a hydrogel),[1],1.6
Azo-Leu-Phe-Ala,tinit(min): time needed for initial collapse of the gel upon UV irradiation,[3],15 min
same,T (° C.): temperature for gel to solution phase transition,[4],71 °C
same,pH (hydrogelation condition),[1]; [8],8.6
Azo-Lys-Ala,pH (hydrogelation condition),[1]; [7],—
Azo-Lys-D-Ala-D-Ala,compound in the cis-configuration,[5]; after UV irradiation for 2 minutes,11%
same,compound in the cis-configuration,[5]; after UV irradiation for 10 minutes,51%
Azo-Lys-D-Phe-D-Ala,photo-response of the gel upon UV irradiation (in words),[3],fast responses
same,total irradiation time needed for the gel to begin to collapse (tinit),[3],7 min
same,tinit(min): time needed for initial collapse of the gel upon UV irradiation,[3],7 min
same,temperature at which the gel turned into a solution upon heating,[4],42 °C
same,T (° C.): temperature for gel to solution phase transition,[4],42 °C
same,decrease in the storage modulus of the hydrogel after UV irradiation,"[6]; dynamic frequency sweep test, FIG. 4B",greater than 100 times
same,storage modulus of the hydrogel before UV irradiation relative to after UV irradiation,"[6]; dynamic strain sweep test, FIG. 4A",70 times
same,pH (hydrogelation condition),[1]; [8],1.2
Azo-Lys-Phe-Ala,total irradiation time needed for the gel to begin to collapse (tinit),[3],30 min
same,tinit(min): time needed for initial collapse of the gel upon UV irradiation,[3],30 min
same,T (° C.): temperature for gel to solution phase transition,[4],59 °C
same,pH (hydrogelation condition),[1]; [8],1.6
Azo-Phe-Ala,pH (hydrogelation condition),[1]; [7],7.8
Azo-Phe-Glu,pH (hydrogelation condition),[1]; [7],2.1
Azo-Phe-Phe,pH (hydrogelation condition),[1]; [7],9.7
Azo-Phe-Ser,pH (hydrogelation condition),[1]; [7],2.0
Azo-Phe-Tyr,pH (hydrogelation condition),[1]; [7],8.6
Azo-Ser-Ala,pH (hydrogelation condition),[1]; [7],—
Azo-Ser-Phe,pH (hydrogelation condition),[1]; [7],5.7
Azo-Ser-Phe-Ala,tinit(min): time needed for initial collapse of the gel upon UV irradiation,[3],—^d
same,T (° C.): temperature for gel to solution phase transition,[4],54 °C
same,pH (hydrogelation condition),[1]; [8],3.7
Azo-Tyr-Ala,pH (hydrogelation condition),[1]; [7],3.0
Azo-Tyr-Lys,pH (hydrogelation condition),[1]; [7],2.2
Azo-Tyr-Tyr,salt effect on concentration required for hydrogelation,[2],decreased the concentration required for hydrogelation
same,pH (hydrogelation condition),[1]; [7],4.8
Azo-VYGGG,pH (to form a hydrogel),[1],2.8
Azo-YSV,pH (to form a hydrogel),[1],1.8

# Reference: patent US20130005833A1, “PHOTO-RESPONSIVE SUPRAMOLECULAR HYDROGELS” (priority 2011, published 2013)
